Results: patent US7767659B2, “Synthesis of naturally occurring ecteinascidins and related compounds” (Pharma Mar, S.A., priority 2002, dated 2010)
Read-outs that look alike come from different tables or passages of the source.

Key:
LoVo-Dox = assay: Inhibition of cells growth by colorimetric assay (SRB); details: Homo sapiens, 48 h
Procedure, shortened: (§1)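 Colorimetric SRB read (490 nm) on triplicate wells after 48 h at 37 °C, 5% CO2. Dose range 10 to 10^−8 μg/ml; 5×10^3 cells/well pre-attached 18 h.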

DU-145 = assay: as above; details: Homo sapiens, DU-145, 48 h
Procedure, shortened: as §1

SK-MEL-28 = assay: as above; details: Homo sapiens, SK-MEL-28, 48 h
Procedure, shortened: as §1

PANC-1 = assay: as above; details: Homo sapiens, PANC-1, 48 h
Procedure, shortened: as §1

SK-BR-3 = assay: as above; details: Homo sapiens, SK-BR-3, 48 h
Procedure, shortened: as §1

HeLa = assay: as above; details: Homo sapiens, HeLa, 48 h
Procedure, shortened: as §1

IGROV-ET = assay: as above; details: Homo sapiens, 48 h
Procedure, shortened: as §1

IGROV-1 = assay: as above; details: Homo sapiens, IGROV-1, 48 h
Procedure, shortened: as §1

LNCaP = assay: as above; details: Homo sapiens, LNCaP, 48 h
Procedure, shortened: as §1

HeLa-APL = assay: as above; details: Homo sapiens, 48 h
Procedure, shortened: as §1

K-562 = assay: as above; details: Homo sapiens, K562, 48 h
Procedure, shortened: as §1

LoVo = assay: cells; details: Homo sapiens, LoVo, 48 h
Procedure, shortened: as §1

A-549 = assay: cells; details: Homo sapiens, A549, 48 h
Procedure, shortened: as §1

HT-29 = assay: cells; details: Homo sapiens, HT-29, 48 h
Procedure, shortened: as §1

Compound `CCCCCCCC(=O)Oc1c(C)c2c(c3c1[C@H]1SC[C@]4(NCCc5cc(O)c(OC)cc54)C(=O)OC[C@@H]3N3C1[C@@H]1N[C@@H](Cc4cc(C)c(OC)c(O)c41)[C@@H]3O)OCO2` (stereo partly drawn) [compound 54] has a GI50 (LoVo-Dox; read-out: LOVO-DOX GI50) of 0.338 µM, a CC50 (LoVo-Dox; read-out: LOVO-DOX LC50) of 12 µM and an IC (TGI) (LoVo-Dox; read-out: LOVO-DOX TGI) of 12 µM. It also gave a GI50 (DU-145; read-out: DU145 GI50) of 0.00376 µM, a CC50 (DU-145; read-out: DU145 LC50) of 12 µM and an IC (TGI) (DU-145; read-out: DU145 TGI) of 0.022 µM. For the same compound, the GI50 (SK-MEL-28; read-out: MEL-28 GI50) was 0.0155 µM, the CC50 (SK-MEL-28; read-out: MEL-28 LC50) was 0.0839 µM and the IC (TGI) (SK-MEL-28; read-out: MEL-28 TGI) was 0.0361 µM. For the same compound, the GI50 (PANC-1; read-out: PANC-1 GI50) was 0.023 µM, the CC50 (PANC-1; read-out: PANC-1 LC50) was 5.31 µM and the IC (TGI) (PANC-1; read-out: PANC-1 TGI) was 0.0648 µM. For the same compound, the GI50 (SK-BR-3; read-out: SK-BR3 GI50) was 0.0127 µM, the CC50 (SK-BR-3; read-out: SK-BR3 LC50) was 12 µM and the IC (TGI) (SK-BR-3; read-out: SK-BR3 TGI) was 0.154 µM. It also gave a GI50 (HeLa; read-out: HELA GI50) of 0.0219 µM, a CC50 (HeLa; read-out: HELA LC50) of 0.376 µM and an IC (TGI) (HeLa; read-out: HELA TGI) of 0.0641 µM. For the same compound, the GI50 (IGROV-ET; read-out: IGROV-ET GI50) was 0.037 µM, the CC50 (IGROV-ET; read-out: IGROV-ET LC50) was 12 µM and the IC (TGI) (IGROV-ET; read-out: IGROV-ET TGI) was 0.12 µM. For the same compound, the GI50 (IGROV-1; read-out: IGROV GI50) was 0.00656 µM, the CC50 (IGROV-1; read-out: IGROV LC50) was 3.37 µM and the IC (TGI) (IGROV-1; read-out: IGROV TGI) was 0.0394 µM. The GI50 (LNCaP; read-out: LNCAP GI50) was 0.00742 µM, the CC50 (LNCaP; read-out: LNCAP LC50) was 0.109 µM and the IC (TGI) (LNCaP; read-out: LNCAP TGI) was 0.0293 µM. It also gave a GI50 (HeLa-APL; read-out: HELA-APL GI50) of 0.0133 µM, a CC50 (HeLa-APL; read-out: HELA-APL LC50) of 0.459 µM and an IC (TGI) (HeLa-APL; read-out: HELA-APL TGI) of 0.143 µM. For the same compound, the GI50 (K-562; read-out: K562 GI50) was 0.00188 µM, the CC50 (K-562; read-out: K562 LC50) was 2.7 µM and the IC (TGI) (K-562; read-out: K562 TGI) was 0.00518 µM. The GI50 (LoVo; read-out: LOVO GI50) was 0.00385 µM, the CC50 (LoVo; read-out: LOVO LC50) was 12 µM and the IC (TGI) (LoVo; read-out: LOVO TGI) was 0.0144 µM. It also gave a GI50 (A-549; read-out: A549 GI50) of 0.0202 µM, a CC50 (A-549; read-out: A549 LC50) of 0.636 µM and an IC (TGI) (A-549; read-out: A549 TGI) of 0.0663 µM. The GI50 (HT-29; read-out: HT29 GI50) was 0.0299 µM, the CC50 (HT-29; read-out: HT29 LC50) was 12 µM and the IC (TGI) (HT-29; read-out: HT29 TGI) was 0.123 µM.
Work on `C=CCOc1c(C)c2c(c3c1CC1[C@H]4c5c(cc(C)c(OC)c5O)C[C@@H]([C@H](C#N)N1[C@H]3CN)N4C)OCO2` (stereo partly drawn) [compound 1] yielded a GI50 (LoVo-Dox; read-out: GI50 LOVO-DOX) of 6.17 µM, a CC50 (LoVo-Dox; read-out: LC50 LOVO-DOX) of 19.2 µM and an IC (TGI) (LoVo-Dox; read-out: TGI LOVO-DOX) of 19.2 µM. The GI50 (DU-145; read-out: GI50 DU145) was 0.567 µM, the CC50 (DU-145; read-out: LC50 DU145) was 1.92 µM and the IC (TGI) (DU-145; read-out: TGI DU145) was 1.07 µM. The GI50 (SK-MEL-28; read-out: GI50 MEL-28) was 0.561 µM, the CC50 (SK-MEL-28; read-out: LC50 MEL-28) was 6.07 µM and the IC (TGI) (SK-MEL-28; read-out: TGI MEL-28) was 1.15 µM. It also gave a GI50 (PANC-1; read-out: GI50 PANC-1) of 0.887 µM, a CC50 (PANC-1; read-out: LC50 PANC-1) of 19.2 µM and an IC (TGI) (PANC-1; read-out: TGI PANC-1) of 4.36 µM. The GI50 (SK-BR-3; read-out: GI50 SK-BR3) was 1.01 µM, the CC50 (SK-BR-3; read-out: LC50 SK-BR3) was 19.2 µM and the IC (TGI) (SK-BR-3; read-out: TGI SK-BR3) was 3.96 µM. The GI50 (HeLa; read-out: GI50 HELA) was 1.08 µM, the CC50 (HeLa; read-out: LC50 HELA) was 18.1 µM and the IC (TGI) (HeLa; read-out: TGI HELA) was 2.84 µM. It also gave a GI50 (IGROV-ET; read-out: GI50 IGROV-ET) of 0.97 µM, a CC50 (IGROV-ET; read-out: LC50 IGROV-ET) of 19.2 µM and an IC (TGI) (IGROV-ET; read-out: TGI IGROV-ET) of 19.2 µM. For the same compound, the GI50 (IGROV-1; read-out: GI50 IGROV) was 0.901 µM, the CC50 (IGROV-1; read-out: LC50 IGROV) was 19.2 µM and the IC (TGI) (IGROV-1; read-out: TGI IGROV) was 2.59 µM. It also gave a GI50 (LNCaP; read-out: GI50 LNCAP) of 0.434 µM, a CC50 (LNCaP; read-out: LC50 LNCAP) of 1.29 µM and an IC (TGI) (LNCaP; read-out: TGI LNCAP) of 0.747 µM. It also gave a GI50 (HeLa-APL; read-out: GI50 HELA-APL) of 0.717 µM, a CC50 (HeLa-APL; read-out: LC50 HELA-APL) of 7.51 µM and an IC (TGI) (HeLa-APL; read-out: TGI HELA-APL) of 1.63 µM. For the same compound, the GI50 (K-562; read-out: GI50 K562) was 0.361 µM, the CC50 (K-562; read-out: LC50 K562) was 1.77 µM and the IC (TGI) (K-562; read-out: TGI K562) was 0.799 µM. For the same compound, the GI50 (LoVo; read-out: GI50 LOVO) was 0.932 µM, the CC50 (LoVo; read-out: LC50 LOVO) was 19.2 µM and the IC (TGI) (LoVo; read-out: TGI LOVO) was 4 µM. It also gave a GI50 (A-549; read-out: GI50 A549) of 1.53 µM, a CC50 (A-549; read-out: LC50 A549) of 19.2 µM and an IC (TGI) (A-549; read-out: TGI A549) of 6.07 µM. It also gave a GI50 (HT-29; read-out: GI50 HT29) of 1.11 µM, a CC50 (HT-29; read-out: LC50 HT29) of 19.2 µM and an IC (TGI) (HT-29; read-out: TGI HT29) of 19.2 µM.
